# Laboratory results published in patent publication US10052385B2, “Formulations of bendamustine” (Eagle Pharmaceuticals, Inc., priority 2012, dated 2018).
# Structures can show the parent of a compound that is named as a salt. Where two headings read alike, the source gives them in different places.
# Experiment: Solubility of bendamustine HCl in 0.9% saline with non-aqueous solubilizer (Example 1)
# Format: physicochemical
# Conditions: for solubility at 30 min: 22.5 °C; for solubility at 30 min / solubility at 24 h: thermodynamic from solid; for solubility at 24 h: 5 °C
# Experimental: Essentially, an excess of bendamustine HCl was added to solvents comprising of various volume percent of the non-aqueous solubilizer in 0.9% saline, and allowed to equilibrate with shaking for 30 minutes at room temperature, or for 24 hours at refrigerated temperature. At the end of the equilibration step, the suspensions were filtered through a 0.2 micron filter to remove undissolved bendamustine, and the filtrate solutions analyzed for bendamustine HCl content using a HPLC assay; quantification was performed against a bendamustine HCl reference standard.
compound,measurement,setting,value
Cn1c(CCCC(=O)O)nc2cc(N(CCCl)CCCl)ccc21 [bendamustine HCl],solubility at 30 min,"0.9% saline with 5 mg/ml monothioglycerol, saline or isotonic, Room temperature, API Source B, solvent also contained 5 mg/ml monothioglycerol, 100.0% Normal Saline, 0.0% Non-aqueous Solubilizer, read-out: Solubility of bendamustine HCl",~3300 µg/mL
same,solubility at 24 h,"0.9% saline, saline or isotonic, 5° C., API Source A, 100.0% Normal Saline, 0.0% Non-aqueous Solubilizer (90:10 PEG 400/PG), read-out: Solubility of bendamustine HCl",1180 µg/mL
same,solubility at 30 min,"0.9% saline, saline or isotonic, Room temperature, API Source A, 100.0% Normal Saline, 0.0% Non-aqueous Solubilizer (90:10 PEG 400/PG), read-out: Solubility of bendamustine HCl",3460 µg/mL
same,solubility at 24 h,"aqueous with cosolvent or surfactant or cyclodextrin, 5° C., API Source A, 80.0% Normal Saline, 20.0% Non-aqueous Solubilizer (90:10 PEG 400/PG), read-out: Solubility of bendamustine HCl",3820 µg/mL
same,solubility at 24 h,"aqueous with cosolvent or surfactant or cyclodextrin, 5° C., API Source A, 82.5% Normal Saline, 17.5% Non-aqueous Solubilizer (90:10 PEG 400/PG), read-out: Solubility of bendamustine HCl",3330 µg/mL
same,solubility at 24 h,"aqueous with cosolvent or surfactant or cyclodextrin, 5° C., API Source A, 85.0% Normal Saline, […] Non-aqueous Solubilizer (90:10 PEG 400/PG), read-out: Solubility of bendamustine HCl",2900 µg/mL
same,solubility at 24 h,"aqueous with cosolvent or surfactant or cyclodextrin, 5° C., API Source A, 90.0% Normal Saline, 10.0% Non-aqueous Solubilizer (90:10 PEG 400/PG), read-out: Solubility of bendamustine HCl",2430 µg/mL
same,solubility at 24 h,"aqueous with cosolvent or surfactant or cyclodextrin, 5° C., API Source A, 95.0% Normal Saline, 5.0% Non-aqueous Solubilizer (90:10 PEG 400/PG), read-out: Solubility of bendamustine HCl",2020 µg/mL
same,solubility at 24 h,"aqueous with cosolvent or surfactant or cyclodextrin, refrigerated, 19.4% of the non-aqueous component in the final 100 ml admixture, read-out: solubility of bendamustine HCl in final admixture",~3800 µg/mL
same,solubility at 30 min,"aqueous with cosolvent or surfactant or cyclodextrin, Room temperature, API Source A, 70.0% Normal Saline, 30.0% Non-aqueous Solubilizer (90:10 PEG 400/PG), read-out: Solubility of bendamustine HCl",12000 µg/mL
same,solubility at 30 min,"aqueous with cosolvent or surfactant or cyclodextrin, Room temperature, API Source A, 80.0% Normal Saline, 20.0% Non-aqueous Solubilizer (90:10 PEG 400/PG), read-out: Solubility of bendamustine HCl",8640 µg/mL
same,solubility at 30 min,"aqueous with cosolvent or surfactant or cyclodextrin, Room temperature, API Source A, 85.0% Normal Saline, […] Non-aqueous Solubilizer (90:10 PEG 400/PG), read-out: Solubility of bendamustine HCl",7010 µg/mL
same,solubility at 30 min,"aqueous with cosolvent or surfactant or cyclodextrin, Room temperature, API Source A, 90.0% Normal Saline, 10.0% Non-aqueous Solubilizer (90:10 PEG 400/PG), read-out: Solubility of bendamustine HCl",5630 µg/mL
same,solubility at 30 min,"aqueous with cosolvent or surfactant or cyclodextrin, Room temperature, API Source A, 95.0% Normal Saline, 5.0% Non-aqueous Solubilizer (90:10 PEG 400/PG), read-out: Solubility of bendamustine HCl",4430 µg/mL
same,solubility at 30 min,"aqueous with cosolvent or surfactant or cyclodextrin, room temperature, 16.1% of the non-aqueous component in the final 50 ml admixture, read-out: room temperature solubility of bendamustine HCl in final admixture",~6500 µg/mL
same,solubility at 30 min,"saline or isotonic, Room temperature, API Source A, 97.5% Normal Saline, 2.5% Non-aqueous Solubilizer (90:10 PEG 400/PG), read-out: Solubility of bendamustine HCl",3990 µg/mL
same,solubility at 30 min,"saline or isotonic, Room temperature, API Source B, solvent also contained 5 mg/ml monothioglycerol, 97.5% Normal Saline, 2.5% Non-aqueous Solubilizer, read-out: Solubility of bendamustine HCl",3890 µg/mL
same,Solubility of bendamustine HCl,"Room temperature, API Source B, solvent also contained 5 mg/ml monothioglycerol, 70.0% Normal Saline, 30.0% Non-aqueous Solubilizer",11407 µg/mL
same,Solubility of bendamustine HCl,"Room temperature, API Source B, solvent also contained 5 mg/ml monothioglycerol, 80.0% Normal Saline, 20.0% Non-aqueous Solubilizer, HCl",8492 µg/mL
same,Solubility of bendamustine HCl,"Room temperature, API Source B, solvent also contained 5 mg/ml monothioglycerol, 82.5% Normal Saline, 17.5% Non-aqueous Solubilizer",7641 µg/mL
same,Solubility of bendamustine HCl,"Room temperature, API Source B, solvent also contained 5 mg/ml monothioglycerol, 85.0% Normal Saline, […] Non-aqueous Solubilizer",6554 µg/mL
same,Solubility of bendamustine HCl,"Room temperature, API Source B, solvent also contained 5 mg/ml monothioglycerol, 87.5% Normal Saline, 12.5% Non-aqueous Solubilizer",5825 µg/mL
same,Solubility of bendamustine HCl,"Room temperature, API Source B, solvent also contained 5 mg/ml monothioglycerol, 90.0% Normal Saline, 10.0% Non-aqueous Solubilizer",5351 µg/mL
same,Solubility of bendamustine HCl,"Room temperature, API Source B, solvent also contained 5 mg/ml monothioglycerol, 92.5% Normal Saline, 7.5% Non-aqueous Solubilizer",4742 µg/mL
same,Solubility of bendamustine HCl,"Room temperature, API Source B, solvent also contained 5 mg/ml monothioglycerol, 95.0% Normal Saline, 5.0% Non-aqueous Solubilizer",4204 µg/mL
